From PMC6348443 (Journal of Medicinal Chemistry, 2018)
Where a name gives a salt, the structure may show the parent alone.

Columns and labels:
[1] = biological target: T1, MOR (Rattus norvegicus, UniProt P33535); experiment: competition radioligand binding, rat brain membranes, [3H]DAMGO; settings: for Ki: rat brain membranes, read-out: opioid receptor binding Ki MOR; for Ki ratio MOR/DOR/KOR: from Ki in rat (MOR, DOR) and guinea-pig (KOR) brain membranes
T1 construct: Membranes were prepared from Sprague-Dawley rat brains or guinea-pig brains according to the described procedures; tissue Labortierkunde und Laborgenetik, Medizinische Universität Wien; host or cells: Sprague-Dawley rat brain without cerebella
Experimental: (§1) Competition binding assays using rat brain (MOR and DOR) and guinea-pig brain (KOR) membranes (Table 1) were performed according to published procedures.[44],[49] […] In addition, we have assessed binding at the human opioid receptors stably transfected in Chinese hamster ovary (CHO) cells (Table S1).
(§2) Membranes were prepared from Sprague-Dawley rat brains or guinea-pig brains according to the described procedures.[44],[45] Brains without cerebella were homogenized on ice in 5 vol/wt of ice-cold 50 mM Tris-HCl buffer (pH 7.4) and diluted in 30 vol/wt of the same buffer. After centrifugation at 40 000g for 20 min at 4 °C, the pellets were resuspended in 30 vol/wt of 50 mM Tris-HCl buffer (pH 7.4) and incubated at 37 °C for 30 min. The centrifugation step described above was repeated, and the final pellets were resuspended in 5 vol/wt of 50 mM Tris-HCl buffer (pH 7.4) containing 0.32 M sucrose and stored at −80 °C until use.
(§3) Rat brain membranes were incubated with either [^3H]DAMGO (1 nM, 45 min, 35 °C) or [^3H][Ile^5,6]deltorphin II (0.5 nM, 45 min, 35 °C) for labeling MOR or DOR receptors, respectively. Guinea-pig brain membranes were incubated with [^3H]U69,593 (1 nM, 30 min, 30 °C) for labeling KOR. Binding assays with CHO cell membranes were conducted at 25 °C for 60 min using [^3H]DAMGO (1 nM) or [^3H]diprenorphine (0.2 nM) for labeling MOR or DOR, respectively. Nonspecific binding was determined using 10 μM naloxone (rodent brain) or 1–10 μM of the unlabeled counterpart of each radioligand (CHO cells). Reactions were terminated by rapid filtration through Whatman glass fiber GF/C filters. Filters were washed three times with 5 mL of ice-cold 50 mM Tris-HCl buffer (pH 7.4) using a Brandel M24R cell harvester (Gaithersburg, MD). Radioactivity retained on the filters was counted by liquid scintillation counting using a Beckman Coulter LS6500 (Beckman Coulter Inc., Fullerton, CA). All binding experiments were performed in duplicate and repeated at least three times.
(§4) Data were analyzed and graphically processed using the GraphPad Prism 5.0 Software (GraphPad Prism Software Inc., San Diego, CA). For in vitro assays, inhibition constant (Ki in nM), potency (EC50 in nM), and efficacy (% stimulation) values were determined from concentration–response curves by nonlinear regression analysis. The Ki values were determined by the method of Cheng and Prusoff.[66] In the [^35S]GTPγS binding assays, efficacy was determined relative to the reference full opioid agonists, DAMGO (MOR), DPDPE (DOR), and U69,593 (KOR). In vitro data are presented as mean ± SEM of three to four independent experiments each performed in duplicate. […] Each experimental group included six to seven mice. Data were statistically evaluated using one-way ANOVA with Tukey’s post hoc test for multiple comparisons with significance set at P < 0.05.

[2] = biological target: T2, DOR (Rattus norvegicus, UniProt P33533); experiment: competition radioligand binding, rat brain membranes, [3H][Ile5,6]deltorphin II; settings: rat brain membranes; read-out: opioid receptor binding Ki DOR
T2 construct: Membranes were prepared from Sprague-Dawley rat brains or guinea-pig brains according to the described procedures; tissue Labortierkunde und Laborgenetik, Medizinische Universität Wien; host or cells: Sprague-Dawley rat brain without cerebella
Experimental: as §1, §2, §3, §4

[3] = system: male CD1 mice; experiment: acetic acid-induced writhing assay after sc administration; assay type: in vivo, mouse; settings: for ED50: Mus musculus, 0.5 h, read-out: ED50 (95% CI), mice, sc, inhibition of writhing 30 min after drug administration
Experimental: Solutions of test compounds were prepared in sterile physiological 0.9% saline and further diluted to working doses in saline solution. Test compounds or saline (control) were administered by sc route in a volume of 10 μL/1 g of body weight. All doses are expressed in terms of salts. Separate groups of mice received the respective dose of compound, and individual mice were only used once for behavioral testing.
Writhing was induced in male CD1 mice by ip injection of a 0.6% acetic acid aqueous solution as described previously.[48],[62] Groups of mice were administered sc different doses of test compound or saline (control), and 5 min prior to testing (25 min after drug or saline), each animal received an ip injection of acetic acid solution. Each mouse was placed in individual transparent Plexiglas chambers, and the number of writhes was counted during a 10 min observation period. […] For the antagonism study, naloxone methiodide was sc co-administered with the respective opioid agonist, and writhing was assessed as described above.
as §4

[4] = biological target: T3, DOR (Homo sapiens, UniProt P41143); experiment: [35S]GTPγS binding assay, CHO-hDOR membranes; assay type: biochemical; settings: for increased agonist potency at DOR vs MOR: [35S]GTPγS EC50; for EC50: [35S]GTPγS, CHO human DOR membranes; for Emax: relative to reference full agonist DPDPE, read-out: DOR % stim.
T3 construct: host or cells: CHO (CHO-hDOR)
Experimental: (§5) Efficacies are presented as percentage stimulation relative to the standard full agonists, [D-Ala^2,N-Me-Phe4,Gly-ol^5]enkephalin (DAMGO for MOR),[53] [D-Pen^2,D-Pen^5]enkephalin (DPDPE for DOR)[54] and N-methyl-2-phenyl-N-[(5R,7S,8S)-7-(pyrrolidin-1-yl)-1-oxaspiro[4.5]dec-8-yl]acetamide (U69,593 for KOR).[55]
(§6) Membranes from CHO cells expressing human opioid receptors were prepared in 50 mM Tris-HCl buffer (pH 7.7) according to a previously described procedure.[64] Cells expressing human opioid receptors grown at confluence were removed from the culture plates by scraping, homogenized in 50 mM Tris buffer (pH 7.7), using a Polytron homogenizer, then centrifuged once and washed by an additional centrifugation at 27 000g for 15 min, at 4 °C. The final pellet was resuspended in Tris buffer and stored at −80 °C until use. Protein content of brain and cell membrane preparation homogenates was determined by the method of Bradford using bovine serum albumin as the standard.[65]
(§7) Binding of [^35S]GTPγS to membranes from CHO cells stably expressing the human opioid receptors was conducted according to the published procedures.[49],[64] Cell membranes (5–10 μg) in 20 mM HEPES, 10 mM MgCl2, and 100 mM NaCl (pH 7.4) were incubated with 0.05 nM [^35S]GTPγS, 10 μM GDP, and various concentrations of test compound in a final volume of 1 mL, for 60 min at 25 °C. Nonspecific binding was determined using 10 μM GTPγS, and the basal binding was determined in the absence of test ligand. Samples are filtered over glass Whatman glass GF/B fiber filters and counted as described for binding assays. All experiments were performed in duplicate and repeated at least three times.
as §4

[5] = biological target: T4, MOR (Homo sapiens, UniProt P35372); experiment: [35S]GTPγS binding assay, CHO-hMOR membranes; assay type: biochemical; settings: for EC50: [35S]GTPγS, CHO human MOR membranes, read-out: MOR EC50; for functional profile at MOR (full/partial agonist): full agonist ≥85% of the response to DAMGO; for Emax: relative to reference full agonist DAMGO, read-out: MOR % stim.
T4 construct: host or cells: CHO (CHO-hMOR)
Experimental: as §5, §6, §7, §4

[6] = biological target: T5, KOR (Cavia porcellus, UniProt P41144); experiment: competition radioligand binding, guinea-pig brain membranes, [3H]U69,593; settings: guinea-pig brain membranes; read-out: opioid receptor binding Ki KOR
T5 construct: Membranes were prepared from Sprague-Dawley rat brains or guinea-pig brains according to the described procedures; tissue Labortierkunde und Laborgenetik, Medizinische Universität Wien; host or cells: guinea-pig brain without cerebella
Experimental: as §1, §2, §3, §4

[7] = biological target: T6, KOR (Homo sapiens, UniProt P41145); experiment: [35S]GTPγS binding assay, CHO-hKOR membranes; assay type: biochemical; settings: for EC50: [35S]GTPγS, CHO human KOR membranes, read-out: KOR EC50; for functional profile at KOR (full/partial agonist): partial agonist <85% of the response to U69,593; for Emax: relative to reference full agonist U69,593, read-out: KOR % stim.
T6 construct: host or cells: CHO (CHO-hKOR)
Experimental: as §5, §6, §7, §4

Compound | Ki [1] | Ki [2] | ED50 [3] | increased agonist potency at DOR vs MOR [4] | EC50 [4] | Emax [4] | EC50 [5] | functional profile at MOR (full/partial agonist) [5] | Emax [5] | Ki [6] | EC50 [7] | functional profile at KOR (full/partial agonist) [7] | Emax [7] | ED50 (95% CI) ([3]; mice, inhibition of writhing 30 min after drug administration) | Ki ratio MOR/DOR/KOR [1] | increase in MOR binding affinity vs comparator ([1]; rat brain, 17b vs 4b, 16a/b vs 7a/b, 22a/b vs 7a, 7b and 9b, 14a vs 14b)
CO[C@@]12CC[C@@H](N[C@H](C(=O)O)C(C)C)[C@@H]3Oc4c(O)ccc5c4[C@@]31CCN(C)[C@@H]2C5 [Compound 7b, (2S)-2-[(4,5α-Epoxy-3-hydroxy-14β-methoxy-17-methylmorphinan-6β-yl)amino]-3-methylbutyric Acid Dihydrochloride] | 3.04 ± 0.12 nM | 3.52 ± 0.04 nM | 0.117 mg/kg | 2–4 times | 5.73 ± 2.48 nM | 96 ± 9% | 11.7 ± 5.7 nM | partial agonist | ~80% | 305 ± 39 nM | 1120 ± 411 nM | partial agonist | 68 ± 10% |  |  | 
CO[C@@]12CC[C@H](N[C@@H](Cc3ccc(O)cc3)C(=O)O)[C@@H]3Oc4c(O)ccc5c4[C@@]31CCN(C)[C@@H]2C5.Cl.Cl [Compound 9a, (2S)-2-[(4,5α-Epoxy-3-hydroxy-14β-methoxy-17-methylmorphinan-6α-yl)amino]-3-(4-hydroxyphenyl)propionic Acid Dihydrochloride] | 0.83 ± 0.04 nM | 2.18 ± 0.98 nM | < 0.02 mg/kg |  | 1.76 ± 0.22 nM | 88 ± 6% | 1.87 ± 0.44 nM |  | 92 ± 2% | 39.5 ± 0.2 nM | 100 ± 6 nM |  | 62 ± 8% | 14.6 (5.15–41.7) μg/kg |  | 
CO[C@@]12CC[C@H](N[C@@H](Cc3c[nH]c4ccccc34)C(=O)O)[C@@H]3Oc4c(O)ccc5c4[C@@]31CCN(C)[C@@H]2C5 [Compound 10a, (2S)-2-[(4,5α-Epoxy-3-hydroxy-14β-methoxy-17-methylmorphinan-6α-yl)-amino]-3-(1H-indolo-3yl)propionic Acid Dihydrochloride] | 0.36 ± 0.01 nM | 1.02 ± 0.12 nM |  |  | 2.52 ± 1.41 nM | 102 ± 8% | 0.51 ± 0.34 nM |  | 93 ± 9% | 25.1 ± 9.3 nM | 70.1 ± 20.5 nM |  | 61 ± 8% |  |  | 
CO[C@@]12CC[C@H](N[C@@H](CC(=O)O)C(=O)O)[C@@H]3Oc4c(O)ccc5c4[C@@]31CCN(C)[C@@H]2C5 [Compound 13a, (2S)-2-[(4,5α-Epoxy-3-hydroxy-14β-methoxy-17-methylmorphinan-6α-yl)-amino]butanedioic Acid Dihydrochloride] | 1.36 ± 0.05 nM | 14.6 ± 3.6 nM | 0.0382 mg/kg |  | 10.1 ± 3.8 nM | 97 ± 3% | 4.1 ± 1.29 nM |  | 90 ± 7% | 50.2 ± 9.2 nM | 2990 ± 659 nM |  | 83 ± 17% |  | 1/11/37 | 
CO[C@@]12CC[C@@H](N[C@@H](CC(=O)O)C(=O)O)[C@@H]3Oc4c(O)ccc5c4[C@@]31CCN(C)[C@@H]2C5 [Compound 13b, (2S)-2-[(4,5α-Epoxy-3-hydroxy-14β-methoxy-17-methylmorphinan-6β-yl)amino]butanedioic Acid Dihydrochloride] | 3.42 ± 0.05 nM | 22.6 ± 2.2 nM |  |  | 11.8 ± 2.2 nM | 101 ± 1% | 1.45 ± 0.01 nM | partial agonists | ~70% | 351 ± 43 nM | 753 ± 358 nM |  | 49 ± 7% |  |  | 
CO[C@@]12CC[C@H](N[C@@H](C(=O)O)C(C)C)[C@@H]3Oc4c(O)ccc5c4[C@@]31CCN(C)[C@@H]2C5 [Compound 16a] | 1.7 ± 0.09 nM | 1.93 ± 0.24 nM |  | ca. 4 times | 1.12 ± 0.69 nM | 93 ± 4% | 4.51 ± 2.35 nM |  | 105 ± 4% | 202 ± 3 nM | 2220 ± 818 nM | full agonists | 96 ± 16% |  |  | 2–3 times
CO[C@@]12CC[C@@H](NCCC(=O)O)[C@@H]3Oc4c(O)ccc5c4[C@@]31CCN(C)[C@@H]2C5 [Compound 20b, 3-[(4,5α-Epoxy-3-hydroxy-14β-methoxy-17-methylmorphinan-6β-yl)amino]propionic Acid Dihydrochloride] | 1.04 ± 0.04 nM | 13.9 ± 1.7 nM |  |  | 20.1 ± 10.7 nM | 99 ± 3% | 5.74 ± 0.47 nM |  | ~80% | 71.4 ± 4.6 nM | 622 ± 311 nM |  | 67 ± 12% |  | 1/13/69 | 
CO[C@@]12CC[C@@H](NCCCC(=O)O)[C@@H]3Oc4c(O)ccc5c4[C@@]31CCN(C)[C@@H]2C5 [Compound 21b] | 1.41 ± 0.13 nM | 6.61 ± 0.67 nM |  | 2–4 times | 6.06 ± 1.07 nM | 103 ± 6% | 12.3 ± 6.8 nM |  | 86 ± 7% | 147 ± 13 nM | 3400 ± 1980 nM | full agonists | 74 ± 5% |  |  | 
